Reference: patent US20170142962A1, “METHODS AND SOLUTIONS INCLUDING ADDITIVES AND STABILIZERS FOR KILLING OR DEACTIVATING SPORES” (EP Technologies LLC, priority 2015, published 2017)
Counter-ions that a name gives are not always drawn.

What was measured:
[1] = test system: C. diff spores; assay: Example 1: direct DBD plasma treatment of EtOH, H2O2 or water solutions on spore-containing discs with soil; type: cell-based, Clostridium difficile; conditions: DBD 30 seconds, 35% EtOH, 70% EtOH, 3% H2O2
Protocol: In the following examples, various treatments were applied to measure the ability of plasma-activated liquids containing various additives to kill or deactivate spores from C. diff bacteria. Briefly, a volume of 10 μl of C. diff spores in sterile water (containing approximately 10^8 colony forming units (CFUs)/ml) was added onto a sterile stainless steel disc and left to dry for 30 minutes. The contaminated surfaces were then exposed to a treatment described below. After treatment, the killing or deactivation capacity of the treatment was measured by estimating the number of surviving CFUs. Estimation of surviving CFUs was determined by placing the disc in test tubes filled with a neutralizer. The test tubes were sonicated for 1 minute and vortexed for 15 seconds to fully remove spores from the surfaces. The neutralizer solution containing spores was diluted and plated on Brain Heart Infusion Agar supplemented with 0.1% Sodium Taurocholate (BHIT). The agar plates were incubated under anaerobic conditions for 36-48 hours at 37° C. CFUs were estimated based on colony counts on the agar plates following incubation. A direct plasma treatment (as shown in FIG. 1) with DBD was used for the testing. The direct DBD was created by an AC sinusoidal voltage power supply with a power scale at 15 (approximately 20 kV peak-to-peak) and a driving frequency of 20.5 kHz. […]

[2] = test system: C. diff spores; assay: Example 2: direct DBD plasma treatment of differing EtOH concentrations on spore-containing discs with soil; type: cell-based, Clostridium difficile; conditions: 12 μl, DBD 30 seconds
Protocol: In the following examples, various treatments were applied to measure the ability of plasma-activated liquids containing various additives to kill or deactivate spores from C. diff bacteria. Briefly, a volume of 10 μl of C. diff spores in sterile water (containing approximately 10^8 colony forming units (CFUs)/ml) was added onto a sterile stainless steel disc and left to dry for 30 minutes. The contaminated surfaces were then exposed to a treatment described below. After treatment, the killing or deactivation capacity of the treatment was measured by estimating the number of surviving CFUs. Estimation of surviving CFUs was determined by placing the disc in test tubes filled with a neutralizer. The test tubes were sonicated for 1 minute and vortexed for 15 seconds to fully remove spores from the surfaces. The neutralizer solution containing spores was diluted and plated on Brain Heart Infusion Agar supplemented with 0.1% Sodium Taurocholate (BHIT). The agar plates were incubated under anaerobic conditions for 36-48 hours at 37° C. CFUs were estimated based on colony counts on the agar plates following incubation. A direct plasma treatment (as shown in FIG. 1) with DBD was used for the testing. […] The gap distance between the plasma reactor and the disc was 2 mm.

[3] = test system: C. diff spores; assay: Example 11: plasma activated wipes used to wipe spore-containing surface; type: cell-based, Clostridium difficile; conditions: mechanical removal
Protocol: (§1) In the following examples, various treatments were applied to measure the ability of plasma-activated liquids containing various additives to kill or deactivate spores from C. diff bacteria. Briefly, a volume of 10 μl of C. diff spores in sterile water (containing approximately 10^8 colony forming units (CFUs)/ml) was added onto a sterile stainless steel disc and left to dry for 30 minutes. The contaminated surfaces were then exposed to a treatment described below. After treatment, the killing or deactivation capacity of the treatment was measured by estimating the number of surviving CFUs. Estimation of surviving CFUs was determined by placing the disc in test tubes filled with a neutralizer. The test tubes were sonicated for 1 minute and vortexed for 15 seconds to fully remove spores from the surfaces. The neutralizer solution containing spores was diluted and plated on Brain Heart Infusion Agar supplemented with 0.1% Sodium Taurocholate (BHIT). The agar plates were incubated under anaerobic conditions for 36-48 hours at 37° C. CFUs were estimated based on colony counts on the agar plates following incubation.

[4] = test system: C. diff spores; assay: Example 3: direct DBD plasma treatment of H2O2 or NaNO2 solutions, spore inoculum in PBST; type: cell-based, Clostridium difficile; conditions: 1, 10, 100, 500 mM, 10 μl, DBD 20 seconds, two trials, NaNO2: other than at 10 mM
Protocol: as §1
A direct plasma treatment (as shown in FIG. 1) with DBD was used for the testing. […]

[5] = cited from earlier work
[6] = test system: C. diff spores; assay: Example 4: direct DBD plasma treatment of acid solutions, spore inoculum in PBST with soil; type: cell-based, Clostridium difficile; conditions: 0.0001% to 10% acid solutions, 3 μl, DBD 20 seconds
Protocol: as §1
A direct plasma treatment (as shown in FIG. 1) with DBD was used for the testing. The direct DBD was created by a microsecond pulsed power supply which creates discrete voltage bursts at a repetition rate of 3.5 kHz which consist of decaying sinusoidal waveforms with a frequency of 32 kHz and a peak-to-peak voltage of approximately 20 kV. The gap distance between the plasma reactor and the disc was 2 mm. Spore inoculum for the stainless steel disc was prepared in 1×PBST with soil instead of sterile water. Citric acid, acetic acid, or HCl was added to water to produce 0.0001% to 10% acid solutions. 3 μl of each of these solutions was added to the spore-containing discs. After application, the discs were subjected to DBD treatment for 20 seconds.

[7] = cited from earlier work; remark: listed apart in the source

## CCO [EtOH, ethanol]
[1]
  kill or deactivation efficiency as additive in the water, versus water alone: substantially increased the kill or deactivation efficiency
[2]
  killing or deactivation efficiency with increased concentration: increasing killing or deactivation efficiency
[3]
  LR of wipe without plasma activation: ~0.7 LR

## OO [H2O2, hydrogen peroxide]
[1]
  kill or deactivation efficiency as additive in the water, versus water alone: substantially increased the kill or deactivation efficiency
[4]
  effect of increasing the concentration on killing or deactivation efficiency: increased the killing or deactivation efficiency
[5]; averaged over an 8-hour work shift
  OSHA permissible exposure limit: 1 ppm
[5]; exposure up to an hour without irreversible or serious health effects
  AIHA ERPG-2 maximum airborne concentration: 50 ppm

## Cl [HCl, hydrochloric acid]
[6]
  killing or deactivation efficiency relative to water alone: increased the killing or deactivation efficiency

## O=NO [NaNO2, sodium nitrite]
[4]
  effect of increasing the concentration on killing or deactivation efficiency: did not increase the killing or deactivation efficiency

## CC(=O)O [acetic acid]
[6]
  killing or deactivation efficiency relative to water alone: increased the killing or deactivation efficiency

## O=C(O)CC(O)(CC(=O)O)C(=O)O [citric acid]
[6]
  killing or deactivation efficiency relative to water alone: increased the killing or deactivation efficiency

## O=NOO [peroxynitrite]
[7]
  half-life: around 1 second
